Results published in ChEMBL document CHEMBL3046009, “Synthesis of piperineamino acid ester conjugates and study of their cytotoxic activities against human cancer cell lines” (Med Chem Res, 2012).
Structures can show the parent of a compound that is named as a salt.

Assays:
Assay type in all cases: functional, cell-based
HEp-2 = experiment: Cytotoxicity against Homo sapiens (human) Hep2 cells by SRB assay
IMR-32 = experiment: Cytotoxicity against Homo sapiens (human) IMR32 cells by SRB assay
COLO 205 = experiment: Cytotoxicity against Homo sapiens (human) COLO205 cells by SRB assay
DU-145 = experiment: Cytotoxicity against Homo sapiens (human) DU145 cells by SRB assay
MCF7 = experiment: Cytotoxicity against Homo sapiens (human) MCF7 cells by SRB assay
PC-3 = experiment: Cytotoxicity against Homo sapiens (human) PC3 cells by SRB assay

SMILES	IC50 (HEp-2) [µM]	IC50 (IMR-32) [µM]	IC50 (COLO 205) [µM]	IC50 (DU-145) [µM]	IC50 (MCF7) [µM]	IC50 (PC-3) [µM]
COC(=O)[C@@H](NC(=O)/C=C/C=C/c1ccc2c(c1)OCO2)C(C)C	> 50	> 50	> 50	44	51	49
COC(=O)[C@H](NC(=O)/C=C/C=C/c1ccc2c(c1)OCO2)C(C)C	> 50	> 50	51	> 50	> 50	> 50
COC(=O)[C@H](CC(C)C)NC(=O)/C=C/C=C/c1ccc2c(c1)OCO2	43	> 50	55	> 50	48	> 50
CC[C@H](C)[C@H](NC(=O)/C=C/C=C/c1ccc2c(c1)OCO2)C(=O)OC	> 50	> 50	> 50	> 50	48	> 50
COC(=O)[C@H](CO)NC(=O)/C=C/C=C/c1ccc2c(c1)OCO2	> 50	> 50	36	> 50	> 50	> 50
COC(=O)C[C@H](NC(=O)/C=C/C=C/c1ccc2c(c1)OCO2)C(=O)OC	> 50	> 50	> 50	46	> 50	> 50
COC(=O)[C@H](Cc1cnc[nH]1)NC(=O)/C=C/C=C/c1ccc2c(c1)OCO2	> 50	> 50	> 50	21	> 50	> 50
COC(=O)CNC(=O)/C=C/C=C/c1ccc2c(c1)OCO2	> 50	50	> 50	49	44	33
COC(=O)[C@H](C)NC(=O)/C=C/C=C/c1ccc2c(c1)OCO2	> 50	> 50	> 50	51	> 50	> 50
COc1cccc2c1C(=O)c1c(O)c3c(c(O)c1C2=O)C[C@@](O)(C(=O)CO)C[C@@H]3O[C@H]1C[C@H](N)[C@H](O)[C@H](C)O1 [DOXORUBICIN HYDROCHLORIDE]		0.02			0.8	
O=c1[nH]cc(F)c(=O)[nH]1 [FLUOROURACIL]	2		2.9		2.9	
CO[C@@]12[C@H](COC(N)=O)C3=C(C(=O)C(C)=C(N)C3=O)N1C[C@@H]1N[C@@H]12 [MITOMYCIN]				1.8		1.4
O=C(/C=C/C=C/c1ccc2c(c1)OCO2)N1CCCCC1 [PIPERINE]	70	89	46	> 50	99	> 50
